Data: ChEMBL document CHEMBL5241130, “Integrating a phenotypic screening with a structural simplification strategy to identify 4-phenoxy-quinoline derivatives to potently disrupt the mitotic localization of Aurora kinase B” (Bioorg Med Chem, 2023)
The source made the active and inactive calls. The calls are words filed in the database; no cut-off is given here.

Columns and labels:
[1] = molecular target: Aurora kinase B (Homo sapiens) (UniProt Q96GD4); test: Disruption of mitotic localization of AURKB in human RPE-MYC H2B-GFP cells assessed as induction of polyploidy by fluorescence high content cell imaging analysis; type: cell-based
[2] = molecular target: Aurora kinase B (Homo sapiens) (UniProt Q96GD4); test: Disruption of mitotic localization of AURKB in human RPE-MYC H2B-GFP cells assessed as induction of mitotic arrest measured after 24 hrs by fluorescence high content cell imaging analysis; type: cell-based
A549 = test: Cytotoxicity against human A549 cells assessed as cell growth inhibition incubated for 3 days by MTT assay; type: functional, cell-based; settings: time 3.0 day
NCI-N87 = test: Cytotoxicity against human NCI-N87 cells assessed as cell growth inhibition incubated for 3 days by MTT assay; type: functional, cell-based; settings: time 3.0 day
HCT-116 = test: Cytotoxicity against human HCT-116 cells assessed as cell growth inhibition incubated for 3 days by MTT assay; type: functional, cell-based; settings: time 3.0 day
[3] = molecular target: Aurora kinase B (Homo sapiens) (UniProt Q96GD4); test: Disruption of mitotic localization of AURKB at the spindle mid-zone and equatorial cortex in human RPE-MYC cells expressing BCL2 at 40 nM measured after 6 hrs by immunofluorescence staining analysis; type: cell-based
[4] = molecular target: Aurora kinase B (Homo sapiens) (UniProt Q96GD4); test: Disruption of mitotic localization of AURKB in human RPE-MYC cells expressing BCL2 assessed as disruption of MKLP1 localization at spindle mid-zone at 40 nM measured after 6 hrs by immunofluorescence staining analysis; type: cell-based
[5] = molecular target: Aurora kinase B (Homo sapiens) (UniProt Q96GD4); test: Inhibition of AURKB in human RPE-MYC H2B-GFP cells assessed as inhibition of histone H3 phosphorylation at Ser10 residue at 8XMEC measured after 6 hrs by immunofluorescence staining analysis; type: cell-based
[6] = molecular target: T1, Aurora kinase A (Homo sapiens) (UniProt O14965); test: Inhibition of AURKA in human RPE-MYC H2B-GFP cells assessed as inhibition of autophosphorylation of AURKA at Thr288 residue at 8XMEC measured after 6 hrs by immunofluorescence staining analysis; type: cell-based
T1 sequence (whole entry): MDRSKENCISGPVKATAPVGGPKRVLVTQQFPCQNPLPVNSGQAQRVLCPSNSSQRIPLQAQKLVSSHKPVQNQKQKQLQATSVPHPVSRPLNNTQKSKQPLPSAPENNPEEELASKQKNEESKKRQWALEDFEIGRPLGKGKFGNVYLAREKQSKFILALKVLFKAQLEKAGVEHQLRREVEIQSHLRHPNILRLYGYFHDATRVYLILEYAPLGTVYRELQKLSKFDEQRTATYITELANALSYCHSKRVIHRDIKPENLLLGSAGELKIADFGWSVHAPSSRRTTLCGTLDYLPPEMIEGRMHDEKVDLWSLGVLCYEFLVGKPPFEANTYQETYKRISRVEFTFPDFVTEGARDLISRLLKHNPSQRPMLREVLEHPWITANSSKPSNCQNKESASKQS

[7] = molecular target: Aurora kinase B (Homo sapiens) (UniProt Q96GD4); test: Disruption of mitotic localization of AURKB in human RPE-MYC H2B-GFP cells assessed as induction of mitotic arrest by fluorescence high content cell imaging analysis; type: cell-based
[8] = molecular target: Aurora kinase B (Homo sapiens) (UniProt Q96GD4); test: Disruption of mitotic localization of AURKB in human RPE-MYC cells expressing BCL2 assessed as disruption of PLK1 localization at spindle mid-zone at 40 nM measured after 6 hrs by immunofluorescence staining analysis; type: cell-based
NCI-H23 = test: Cytotoxicity against human NCI-H23 cells assessed as cell growth inhibition incubated for 3 days by MTT assay; type: functional, cell-based; settings: time 3.0 day
HeLa = test: Cytotoxicity against human HeLa cells assessed as cell growth inhibition incubated for 3 days by MTT assay; type: functional, cell-based; settings: time 3.0 day
SW480 = test: Cytotoxicity against human SW480 cells assessed as cell growth inhibition incubated for 3 days by MTT assay; type: functional, cell-based; settings: time 3.0 day
MDA-MB-231 = test: Cytotoxicity against human MDA-MB-231 cells assessed as cell growth inhibition incubated for 3 days by MTT assay; type: functional, cell-based; settings: time 3.0 day
[9] = molecular target: Aurora kinase B (Homo sapiens) (UniProt Q96GD4); test: Disruption of mitotic localization of AURKB in human RPE-MYC H2B-GFP cells assessed as induction of polyploidy by fluorescence high content cell imaging analysis relative to control; type: cell-based
[10] = molecular target: Aurora kinase B (Homo sapiens) (UniProt Q96GD4); test: Disruption of mitotic localization of AURKB in human RPE-MYC H2B-GFP cells assessed as proportion of polyploid cells in fully attached cell population at 0.312 uM measured after 48 hrs by fluorescence high content cell imaging analysis (Rvb <1%); type: cell-based
[11] = molecular target: Aurora kinase B (Homo sapiens) (UniProt Q96GD4); test: Disruption of mitotic localization of AURKB in human RPE-MYC H2B-GFP cells assessed as proportion of polyploid cells in fully attached cell population at 0.078 uM measured after 48 hrs by fluorescence high content cell imaging analysis (Rvb <1%); type: cell-based
[12] = molecular target: Aurora kinase B (Homo sapiens) (UniProt Q96GD4); test: Disruption of mitotic localization of AURKB in human RPE-MYC H2B-GFP cells assessed as mitotic index at 0.078 uM measured after 6 hrs by fluorescence high content cell imaging analysis (reference value: 4.7+/-0.4%); type: cell-based
[13] = molecular target: T1, Aurora kinase A (Homo sapiens); test: Inhibition of AURKA in human RPE-MYC H2B-GFP cells assessed as inhibition of autophosphorylation of AURKA at Thr288 residue by measuring residual enzyme activity at 0.078 uM measured after 6 hrs by immunofluorescence staining analysis (reference value: 100 +/-1%); type: cell-based
[14] = molecular target: Aurora kinase B (Homo sapiens) (UniProt Q96GD4); test: Inhibition of AURKB in human RPE-MYC H2B-GFP cells assessed as inhibition of histone H3 phosphorylation at Ser10 residue by measuring residual enzyme activity at 0.312 uM measured after 6 hrs by immunofluorescence staining analysis (reference value: 100 +/-9%); type: cell-based
[15] = molecular target: Aurora kinase B (Homo sapiens) (UniProt Q96GD4); test: Inhibition of AURKB in human RPE-MYC H2B-GFP cells assessed as inhibition of histone H3 phosphorylation at Ser10 residue by measuring residual enzyme activity at 0.078 uM measured after 6 hrs by immunofluorescence staining analysis (reference value: 100 +/-9%); type: cell-based
[16] = molecular target: T1, Aurora kinase A (Homo sapiens); test: Inhibition of AURKA in human RPE-MYC H2B-GFP cells assessed as inhibition of autophosphorylation of AURKA at Thr288 residue by measuring residual enzyme activity at 0.312 uM measured after 6 hrs by immunofluorescence staining analysis (reference value: 100 +/-1%); type: cell-based
[17] = molecular target: Aurora kinase B (Homo sapiens) (UniProt Q96GD4); test: Disruption of mitotic localization of AURKB in human RPE-MYC H2B-GFP cells assessed as mitotic index at 0.312 uM measured after 6 hrs by fluorescence high content cell imaging analysis (reference value: 4.7+/-0.4%); type: cell-based
[18] = molecular target: T1, Aurora kinase A (Homo sapiens); test: Inhibition of AURKA in human RPE-MYC H2B-GFP cells assessed as inhibition of autophosphorylation of AURKA at Thr288 residue by measuring residual enzyme activity at 0.156 uM measured after 6 hrs by immunofluorescence staining analysis (reference value: 100 +/-1%); type: cell-based
[19] = molecular target: Aurora kinase B (Homo sapiens) (UniProt Q96GD4); test: Inhibition of AURKB in human RPE-MYC H2B-GFP cells assessed as inhibition of histone H3 phosphorylation at Ser10 residue by measuring residual enzyme activity at 0.156 uM measured after 6 hrs by immunofluorescence staining analysis (reference value: 100 +/-9%); type: cell-based
[20] = molecular target: Aurora kinase B (Homo sapiens) (UniProt Q96GD4); test: Disruption of mitotic localization of AURKB in human RPE-MYC H2B-GFP cells assessed as mitotic index at 0.156 uM measured after 6 hrs by fluorescence high content cell imaging analysis (reference value: 4.7+/-0.4%); type: cell-based
[21] = molecular target: Aurora kinase B (Homo sapiens) (UniProt Q96GD4); test: Disruption of mitotic localization of AURKB in human RPE-MYC H2B-GFP cells assessed as proportion of polyploid cells in fully attached cell population at 0.156 uM measured after 48 hrs by fluorescence high content cell imaging analysis (Rvb <1%); type: cell-based

Aurora kinase B (Homo sapiens), sequence (Q96GD4 whole entry): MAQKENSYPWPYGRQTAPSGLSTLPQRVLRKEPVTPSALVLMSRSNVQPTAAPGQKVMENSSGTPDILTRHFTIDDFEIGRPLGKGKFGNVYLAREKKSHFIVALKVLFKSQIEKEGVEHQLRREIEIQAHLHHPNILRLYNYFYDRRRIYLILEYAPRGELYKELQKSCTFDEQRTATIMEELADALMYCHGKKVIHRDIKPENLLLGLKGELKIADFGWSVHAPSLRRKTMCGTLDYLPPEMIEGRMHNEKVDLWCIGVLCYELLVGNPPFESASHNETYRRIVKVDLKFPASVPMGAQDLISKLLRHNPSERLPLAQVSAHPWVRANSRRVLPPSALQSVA

MEC [1] [µM] | MEC [2] [µM] | Structure (SMILES) | also measured
1.25 | 1.25 | COC(=O)c1cc2c(Oc3cc(NC(C)=O)cc(OC)c3)ccnc2cc1OC | 
0.012 | 0.012 | COc1cc(Oc2ccnc3ccc(OC)cc23)cc(-n2cccn2)c1 | Activity (A549): Active; Activity (NCI-N87): Active; Activity (HCT-116): Active; Activity [3]: Active; Activity [4]: Active; inhibition [5]: < 40%; inhibition [6]: < 40%; Activity [7]: inactive; Activity [8]: Active; Activity (NCI-H23): Active; Activity (HeLa): Active; Activity (SW480): Active; Activity (MDA-MB-231): Active; Activity [9]: 100%
0.01 | 0.01 | COc1cc(NC(C)=O)cc(Oc2ccnc3ccc(F)cc23)c1 | Activity (A549): Active; Activity (NCI-N87): Active; Activity (HCT-116): Active; Activity [3]: Active; Activity [4]: Active; inhibition [5]: < 40%; inhibition [6]: < 40%; Activity [7]: inactive; Activity [8]: Active; Activity (NCI-H23): Active; Activity (HeLa): Active; Activity (SW480): Active; Activity (MDA-MB-231): Active; Activity [9]: 100%
5 | 5 | COc1cc(Oc2ccnc3cc(OC)ccc23)cc(-n2cccn2)c1 | 
10 | 10 | CCOC(=O)c1cccc(Oc2ccnc3ccccc23)c1 | 
> 40 | > 40 | COc1cc(Oc2ccnc3cc(C(F)(F)F)ccc23)cc(-n2cccn2)c1 | 
0.078 | 0.039 | COC(=O)c1cc2c(Oc3cc(OC)cc(-n4cccn4)c3)ccnc2cc1OC | 
1.25 | 1.25 | COc1cc(Oc2ccnc3ccccc23)cc(C(F)(F)F)c1 | 
> 40 | > 40 | COc1cc(Oc2ccnc3ccccc23)cc(C(=O)O)c1 | 
0.625 | 0.625 | COc1cc(Oc2ccnc3ccccc23)cc(-c2nc(C)no2)c1 | 

More lines, now with the values behind:

Structure (SMILES) | MEC [1] [µM] | MEC [2] [µM] | also measured
COc1cc(Oc2ccnc3ccc(F)cc23)cc(-n2cccn2)c1 | 0.052 | 0.052 | 
COc1cccc(Oc2ccnc3ccccc23)c1 | 5 | 5 | 
COc1cc(OC)cc(Oc2ccnc3ccccc23)c1 | 0.078 | 0.078 | 
COc1cc(Oc2ccnc3ccccc23)cc(-n2cccn2)c1 | 0.078 | 0.078 | 
CC(=O)c1cccc(Oc2ccnc3ccccc23)c1 | 10 | 10 | 
COC(=O)c1cc(OC)cc(Oc2ccnc3ccccc23)c1 | 0.02 | 0.02 | 
Cc1csc(-c2nnc(Nc3ccc(Oc4ccnc5ccccc45)cc3)c3ccccc23)c1 |  |  | Activity [10]: 100%; Activity [11]: 100%; Activity [12]: 11%; Activity [13]: 100%; Activity [14]: 0%; Activity [15]: 98%; Activity [16]: 100%; Activity [17]: 10.1%; Activity [18]: 100%; Activity [19]: 21.4%; Activity [20]: 9.8%; Activity [21]: 100%
COc1cc(NC(C)=O)cc(Oc2ccnc3cc(OC)c(C(N)=O)cc23)c1 | 0.625 | 0.625 | 
O=C(NC1CCCC1)c1cccc(Oc2ccnc3ccccc23)c1 | > 40 | > 40 | 
CNC(=O)c1cc(OC)cc(Oc2ccnc3ccccc23)c1 | 1.25 | 0.625 | 
COc1cc(NC(C)=O)cc(Oc2ccnc3ccccc23)c1 | 0.078 | 0.078 | 
COC(=O)c1ccc(OC)c(Oc2ccnc3ccccc23)c1 | 0.625 | 0.625 | 
COc1ccc(Oc2ccnc3ccccc23)cc1 | > 40 | > 40 | 
COc1cc(Oc2ccnc3cc(Cl)ccc23)cc(-n2cccn2)c1 | 20 | 20 | 
c1ccc(Oc2ccnc3ccccc23)cc1 | > 40 | > 40 | 
O=Cc1cccc(Oc2ccnc3ccccc23)c1 | > 40 | > 40 | 
COC(=O)c1ccc(Oc2ccnc3ccccc23)cc1 | 40 | 40 | 
COc1cc(Oc2ccnc3cc(OC)c(OC)cc23)cc(-n2cccn2)c1 | 0.012 | 0.012 | Activity (A549): Active; Activity (NCI-N87): Active; Activity (HCT-116): Active; Activity [3]: Active; Activity [4]: Active; inhibition [5]: < 40%; inhibition [6]: < 40%; Activity [7]: inactive; Activity [8]: Active; Activity (NCI-H23): Active; Activity (HeLa): Active; Activity (SW480): Active; Activity (MDA-MB-231): Active; Activity [9]: 100%
COC(=O)c1cccc(Oc2ccnc3ccccc23)c1 | 10 | 10 | 
Nc1cccc(Oc2ccnc3ccccc23)c1 | 40 | 40 | 
COc1cc(NC(C)=O)cc(Oc2ccnc3cc(OC)c(OC)cc23)c1 | 0.078 | 0.039 | 
